From patent publication US12692269B2, “Therapeutic compounds” (Genentech, Inc., priority 2019, dated 2026)

How the values were obtained:
Type in all cases: binding
[1] = target: TEAD3 YAP50-100 (Homo sapiens, UniProt Q99594); assay: TEAD3-YAP HTRF (TR-FRET) protein-protein interaction assay; settings: TEAD3, YAP peptide 50-100, HTRF; for EC50: read-out: TEAD3 YAP50-100 HTRF combined: EC50
Outline: (§1)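 His-tagged TEAD YAP-binding domain (aa 217-447) pre-bound to Eu anti-His tracer, incubated with compound 30 min, then biotinylated YAP (aa 50-100) or TAZ (aa 13-57) peptide with streptavidin-XL665 added for 60 min at room temperature. TR-FRET read at 665/615 nm; IC50 or EC50 from four-parameter fit.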

[2] = target: TEAD1 YAP50-100 (Homo sapiens, UniProt P28347); assay: TEAD1-YAP HTRF (TR-FRET) protein-protein interaction assay; settings: TEAD1, YAP peptide 50-100, HTRF; for EC50: read-out: TEAD1 YAP50-100 HTRF combined: EC50
Outline: as §1

[3] = target: TEAD4 YAP50-100 (Homo sapiens, UniProt Q15561); assay: TEAD4-YAP HTRF (TR-FRET) protein-protein interaction assay; settings: TEAD4, YAP peptide 50-100, HTRF; for EC50: read-out: TEAD4 YAP50-100 HTRF combined: EC50
Outline: as §1

[4] = target: TEAD2 YAP50-100 (Homo sapiens, UniProt Q15562); assay: TEAD2-YAP HTRF (TR-FRET) protein-protein interaction assay; settings: TEAD2, YAP peptide 50-100, HTRF; for EC50: read-out: TEAD2 YAP50-100 HTRF combined: EC50
Outline: as §1

[5] = target: TEAD3 TAZ (amino acids 13-57) (Homo sapiens, UniProt Q99594); assay: TEAD3-TAZ HTRF (TR-FRET) protein-protein interaction assay; settings: for TEAD3 TAZ HTRF combined: Max % Inhibition: TEAD3, TAZ peptide; for EC50: TEAD3-TAZ HTRF, TR-FRET 665 nm/615 nm, read-out: TEAD3 TAZ HTRF combined: EC50
Outline: as §1

[6] = target: TEAD2 TAZ (amino acids 13-57) (Homo sapiens, UniProt Q15562); assay: TEAD2-TAZ HTRF (TR-FRET) protein-protein interaction assay; settings: for TEAD2 TAZ HTRF combined: Max % Inhibition: TEAD2, TAZ peptide; for EC50: TEAD2-TAZ HTRF, TR-FRET 665 nm/615 nm, read-out: TEAD2 TAZ HTRF combined: EC50
Outline: as §1

[7] = target: TEAD4 TAZ (amino acids 13-57) (Homo sapiens, UniProt Q15561); assay: TEAD4-TAZ HTRF (TR-FRET) protein-protein interaction assay; settings: for TEAD4 TAZ HTRF combined: Max % Inhibition: TEAD4, TAZ peptide; for EC50: TEAD4-TAZ HTRF, TR-FRET 665 nm/615 nm, read-out: TEAD4 TAZ HTRF combined: EC50
Outline: as §1

[8] = target: TEAD1 TAZ (amino acids 13-57) (Homo sapiens, UniProt P28347); assay: TEAD1-TAZ HTRF (TR-FRET) protein-protein interaction assay; settings: for TEAD1 TAZ HTRF combined: Max % Inhibition: TEAD1, TAZ peptide; for EC50: TEAD1-TAZ HTRF, TR-FRET 665 nm/615 nm, read-out: TEAD1 TAZ HTRF combined: EC50
Outline: as §1

Chain of TEAD1 TAZ (amino acids 13-57) (P28347 167-426 limits assumed): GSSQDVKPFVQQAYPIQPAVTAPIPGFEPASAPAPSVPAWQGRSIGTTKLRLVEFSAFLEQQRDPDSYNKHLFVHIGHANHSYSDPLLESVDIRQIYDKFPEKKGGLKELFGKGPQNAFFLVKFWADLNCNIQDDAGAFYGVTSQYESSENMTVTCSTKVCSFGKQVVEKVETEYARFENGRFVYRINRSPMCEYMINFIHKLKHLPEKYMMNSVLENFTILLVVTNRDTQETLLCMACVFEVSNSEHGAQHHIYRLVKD
Chain of TEAD1 YAP50-100 (P28347 167-426 limits assumed): as above
Chain of TEAD4 YAP50-100 (Q15561 217-434 limits assumed): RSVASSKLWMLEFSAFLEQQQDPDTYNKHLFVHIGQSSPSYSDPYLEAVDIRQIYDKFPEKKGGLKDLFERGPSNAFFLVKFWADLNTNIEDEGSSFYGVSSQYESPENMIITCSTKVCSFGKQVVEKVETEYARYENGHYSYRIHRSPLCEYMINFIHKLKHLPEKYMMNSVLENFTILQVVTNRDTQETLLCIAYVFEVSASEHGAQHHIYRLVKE
Chain of TEAD4 TAZ (amino acids 13-57) (Q15561 217-434 limits assumed): as above
Chain of TEAD3 YAP50-100 (Q99594 173-435 limits assumed): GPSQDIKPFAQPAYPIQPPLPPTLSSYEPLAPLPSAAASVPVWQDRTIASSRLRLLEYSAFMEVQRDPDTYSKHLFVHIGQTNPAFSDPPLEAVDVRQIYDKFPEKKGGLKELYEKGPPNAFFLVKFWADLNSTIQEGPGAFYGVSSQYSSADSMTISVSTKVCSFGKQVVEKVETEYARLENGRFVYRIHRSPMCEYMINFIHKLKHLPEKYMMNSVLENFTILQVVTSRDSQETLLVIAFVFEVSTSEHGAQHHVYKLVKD
Chain of TEAD3 TAZ (amino acids 13-57) (Q99594 173-435 limits assumed): as above
Chain of TEAD2 YAP50-100 (Q15562 217-447): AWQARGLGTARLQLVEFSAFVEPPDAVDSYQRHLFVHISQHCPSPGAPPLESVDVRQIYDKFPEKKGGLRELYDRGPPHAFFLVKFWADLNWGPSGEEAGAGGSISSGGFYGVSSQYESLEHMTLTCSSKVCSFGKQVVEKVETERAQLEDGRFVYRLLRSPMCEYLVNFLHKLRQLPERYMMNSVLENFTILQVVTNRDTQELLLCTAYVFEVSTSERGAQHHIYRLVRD
Chain of TEAD2 TAZ (amino acids 13-57) (Q15562 217-447): as above

CCN(C)C(=O)c1nn2c(=O)cc(-c3ccc(C4CCCCC4)cc3)[nH]c2c1C(=O)N1CC(CF)C1 [Compound 35, 5-(4-Cyclohexylphenyl)-N-ethyl-3-(3-(fluoromethyl)azetidine-1-carbonyl)-N-methyl-7-oxo-4,7-dihydropyrazolo[1,5-a]pynmidine-2-carboxamide]
TEAD3 YAP50-100 HTRF combined: Max % Inhibition [1]: 68.0%
EC50 [1]: 130 nM
TEAD1 YAP50-100 HTRF combined: Max % Inhibition [2]: 72.0%
EC50 [2]: 70 nM
TEAD4 YAP50-100 HTRF combined: Max % Inhibition [3]: 52.5%
EC50 [3]: 180 nM
TEAD2 YAP50-100 HTRF combined: Max % Inhibition [4]: 71.5%
EC50 [4]: 20 nM
TEAD3 TAZ HTRF combined: Max % Inhibition [5]: 57.0%
EC50 [5]: 150 nM
TEAD2 TAZ HTRF combined: Max % Inhibition [6]: 71.5%
EC50 [6]: 20 nM
TEAD4 TAZ HTRF combined: Max % Inhibition [7]: 37.0%
EC50 [7]: 140 nM
TEAD1 TAZ HTRF combined: Max % Inhibition [8]: 59.0%
EC50 [8]: 80 nM

O=C(c1nn2c(=O)cc(-c3ccc(C4CCCCC4)cc3)[nH]c2c1C(=O)N1CC(CF)C1)N1CCCC1 [Compound 36, 5-(4-Cyclohexylphenyl)-3-(3-(fluoromethyl)azetidine-1-carbonyl)-2-(pyrrolidine-1-carbonyl)pyrazolo[1,5-a]pyrimidin-7(4H)-one]
TEAD3 YAP50-100 HTRF combined: Max % Inhibition [1]: 71.0%
EC50 [1]: 180 nM
TEAD1 YAP50-100 HTRF combined: Max % Inhibition [2]: 70.0%
EC50 [2]: 70 nM
TEAD4 YAP50-100 HTRF combined: Max % Inhibition [3]: 48.0%
EC50 [3]: 1020 nM
TEAD2 YAP50-100 HTRF combined: Max % Inhibition [4]: 73.5%
EC50 [4]: 20 nM
TEAD3 TAZ HTRF combined: Max % Inhibition [5]: 60.0%
EC50 [5]: 200 nM
TEAD2 TAZ HTRF combined: Max % Inhibition [6]: 73.5%
EC50 [6]: 20 nM
TEAD4 TAZ HTRF combined: Max % Inhibition [7]: 38.0%
EC50 [7]: 850 nM
TEAD1 TAZ HTRF combined: Max % Inhibition [8]: 60.5%
EC50 [8]: 80 nM

O=C(c1c(-c2cccnc2)nn2c(=O)cc(-c3ccc(C4CCCCC4)cc3)[nH]c12)N1CC(CF)C1 [Compound 37, 5-(4-Cyclohexylphenyl)-3-(3-(fluoromethyl)azetidine-1-carbonyl)-2-(pyridin-3-yl)pyrazolo[1,5-a]pyrimidin-7(4H)-one]
TEAD3 YAP50-100 HTRF combined: Max % Inhibition [1]: 64.0%
EC50 [1]: 150 nM
TEAD1 YAP50-100 HTRF combined: Max % Inhibition [2]: 66.0%
EC50 [2]: 100 nM
TEAD4 YAP50-100 HTRF combined: Max % Inhibition [3]: 27.5%
EC50 [3]: 220 nM
TEAD2 YAP50-100 HTRF combined: Max % Inhibition [4]: 54.5%
EC50 [4]: 20 nM
TEAD3 TAZ HTRF combined: Max % Inhibition [5]: 55.0%
EC50 [5]: 150 nM
TEAD2 TAZ HTRF combined: Max % Inhibition [6]: 50.0%
EC50 [6]: 20 nM
TEAD4 TAZ HTRF combined: Max % Inhibition [7]: 16.5%
EC50 [7]: 160 nM
TEAD1 TAZ HTRF combined: Max % Inhibition [8]: 50.0%
EC50 [8]: 120 nM

O=C(c1c(-c2ccccc2)nn2c(=O)cc(-c3ccc(C4CCCCC4)cc3)[nH]c12)N1CC(CF)C1 [Compound 38, 5-(4-Cyclohexylphenyl)-3-(3-(fluoromethyl)azetidine-1-carbonyl)-2-phenylpyrazolo[1,5-a]pyrimidin-7(4H)-one]
TEAD3 YAP50-100 HTRF combined: Max % Inhibition [1]: 65.0%
EC50 [1]: 220 nM
TEAD1 YAP50-100 HTRF combined: Max % Inhibition [2]: 64.0%
EC50 [2]: 210 nM
TEAD4 YAP50-100 HTRF combined: Max % Inhibition [3]: 41.0%
EC50 [3]: 200 nM
TEAD2 YAP50-100 HTRF combined: Max % Inhibition [4]: 61.5%
EC50 [4]: 30 nM
TEAD3 TAZ HTRF combined: Max % Inhibition [5]: 61.0%
EC50 [5]: 250 nM
TEAD2 TAZ HTRF combined: Max % Inhibition [6]: 64.0%
EC50 [6]: 20 nM
TEAD4 TAZ HTRF combined: Max % Inhibition [7]: 37.5%
EC50 [7]: 130 nM
TEAD1 TAZ HTRF combined: Max % Inhibition [8]: 47.5%
EC50 [8]: 220 nM

O=C(c1c(-c2cnco2)nn2c(=O)cc(-c3ccc(C4CCCCC4)cc3)[nH]c12)N1CC(CF)C1 [Compound 39, 5-(4-Cyclohexylphenyl)-3-(3-(fluoromethyl)azetidine-1-carbonyl)-2-(oxazol-5-yl)pyrazolo[1,5-a]pyrimidin-7(4H)-one]
TEAD3 YAP50-100 HTRF combined: Max % Inhibition [1]: 61.5%
EC50 [1]: 60 nM
TEAD1 YAP50-100 HTRF combined: Max % Inhibition [2]: 65.0%
EC50 [2]: 50 nM
TEAD4 YAP50-100 HTRF combined: Max % Inhibition [3]: 34.5%
EC50 [3]: 650 nM
TEAD2 YAP50-100 HTRF combined: Max % Inhibition [4]: 62.0%
EC50 [4]: 20 nM
TEAD3 TAZ HTRF combined: Max % Inhibition [5]: 53.5%
EC50 [5]: 60 nM
TEAD2 TAZ HTRF combined: Max % Inhibition [6]: 56.5%
EC50 [6]: 20 nM
TEAD4 TAZ HTRF combined: Max % Inhibition [7]: 18.0%
EC50 [7]: 370 nM
TEAD1 TAZ HTRF combined: Max % Inhibition [8]: 37.5%
EC50 [8]: 90 nM

CC(C)c1ccc(COc2cc(=O)n3nc(-c4cnccn4)c(C(=O)N4CC(CF)C4)c3[nH]2)cc1 [Compound 52, 3-(3-(Fluoromethyl)azetidine-1-carbonyl)-5-((4-isopropylbenzyl)oxy)-2-(pyrazin-2-yl)pyrazolo[1,5-a]primidin-7(4H)-one]
TEAD3 YAP50-100 HTRF combined: Max % Inhibition [1]: 57.0%
EC50 [1]: 150 nM
TEAD1 YAP50-100 HTRF combined: Max % Inhibition [2]: 70.0%
EC50 [2]: 50 nM
TEAD4 YAP50-100 HTRF combined: Max % Inhibition [3]: 66.0%
EC50 [3]: 180 nM
TEAD2 YAP50-100 HTRF combined: Max % Inhibition [4]: 68.0%
EC50 [4]: 20 nM
TEAD3 TAZ HTRF combined: Max % Inhibition [5]: 48.0%
EC50 [5]: 180 nM
TEAD2 TAZ HTRF combined: Max % Inhibition [6]: 69.0%
EC50 [6]: 20 nM
TEAD4 TAZ HTRF combined: Max % Inhibition [7]: 58.0%
EC50 [7]: 150 nM
TEAD1 TAZ HTRF combined: Max % Inhibition [8]: 62.0%
EC50 [8]: 60 nM

CC(C)(C)c1ccc(COc2cc(=O)n3nc(-c4cnccn4)c(C(=O)N4CC(CF)C4)c3[nH]2)cc1 [Compound 53, 5-((4-(Tert-butyl)benzyl)oxy)-3-(3-(fluoromethyl)azetidine-1-carbonyl)-2-(pyrazin-2-yl)pyrazolo[1,5-a]pyrimidin-7(4H)-one]
TEAD3 YAP50-100 HTRF combined: Max % Inhibition [1]: 58.5%
EC50 [1]: 110 nM
TEAD1 YAP50-100 HTRF combined: Max % Inhibition [2]: 72.0%
EC50 [2]: 50 nM
TEAD4 YAP50-100 HTRF combined: Max % Inhibition [3]: 65.5%
EC50 [3]: 50 nM
TEAD2 YAP50-100 HTRF combined: Max % Inhibition [4]: 64.5%
EC50 [4]: 20 nM
TEAD3 TAZ HTRF combined: Max % Inhibition [5]: 46.0%
EC50 [5]: 90 nM
TEAD2 TAZ HTRF combined: Max % Inhibition [6]: 67.0%
EC50 [6]: 20 nM
TEAD4 TAZ HTRF combined: Max % Inhibition [7]: 51.5%
EC50 [7]: 30 nM
TEAD1 TAZ HTRF combined: Max % Inhibition [8]: 62.5%
EC50 [8]: 70 nM
